Measurements reported in patent US20240279338A1, “Combination Treatment of Cancer” (Ares Trading S.A., priority 2021, published 2024).

Tests used:
[1] = tested on: MBT2 cells; experiment: CD73low MBT2 syngeneic tumor model, tumor growth; type: in vivo; details: MBT2, female C3H mice; Day 14; Compound A 300 mg/kg po BID; bintrafusp alfa 24.6 mg/kg iv days 0, 3, 6
Experimental: (§1) Female C3H mice were inoculated with 1×10^6 MBT2 cells in the right upper flank and were treated with Compound A (300 mg/kg po, BID), bintrafusp alfa (24.6 mg/kg iv, days 0, 3, 6), Compound A+bintrafusp alfa, when average tumor volume reached approximately 53 mm^3. Vehicle (po, BID) and isotype control antibody injections (20 mg/kg iv, days 0, 3, 6) were used as controls. (A) Average tumor volumes with SEM, and (B) individual tumor volumes are presented. Tumor volume data were analyzed using two-way ANOVA followed by Tukey's multiple comparison test.
(§2) To determine whether combined treatment with the dual A2A/A2B receptor inhibitor “Compound A” ((S)-7-Oxa-2-aza-spiro[4.5]decane-2-carboxylic acid [7-(3,6-dihydro-2H-pyran-4-yl)-4-methoxy-thiazolo[4,5-c]pyridin-2-yl]-amide) and bintrafusp alfa can inhibit tumor growth in either CD73^hi or CD73^low models, tumor growth was monitored in […] syngeneic tumor models. Animals were inoculated with either CD73^hi tumor cells (4T1, E0771, or EMT6) or with CD73^low MC38, H22 or MBT2 tumor cells. For all tumor models, animals were treated with either 1) vehicle and isotype, 2) Compound A and isotype, 3) vehicle and bintrafusp alfa, or 4) Compound A and bintrafusp alfa. […]

[2] = tested on: CD73 KO 4T1 tumor cells; experiment: CD73-KO 4T1 syngeneic tumor model, tumor growth; type: in vivo; details: CD73 KO 4T1, female BALB/c mice; Day 18 post treatment initiation; Compound A 300 mg/kg po bid; bintrafusp alfa 24.6 mg/kg iv days 0, 3, 6
Experimental: Female BALB/c mice were inoculated with 1×10^5 CD73 KO 4T1 tumor cells into the right mammary fat pad and were treated with Compound A (300 mg/kg po, bid), bintrafusp alfa (24.6 mg/kg iv, days 0, 3, 6), Compound A+bintrafusp alfa, when average tumor volume reached approximately 60 mm^3. Vehicle (po, bid) and isotype control antibody injections (20 mg/kg iv, days 0, 3, 6) were used as controls. (A) Average tumor volumes with SEM, and (B) individual tumor volumes are presented. Tumor volume data were analyzed using two-way ANOVA followed by Tukey's multiple comparison test.
Further to the results of Example 3, tumor growth inhibition by the combined treatment with the dual A2A/A2B receptor inhibitor “Compound A” ((S)-7-Oxa-2-aza-spiro[4.5]decane-2-carboxylic acid [7-(3,6-dihydro-2H-pyran-4-yl)-4-methoxy-thiazolo[4,5-c]pyridin-2-yl]-amide) and bintrafusp alfa was examined in a syngeneic 4T1 tumor model, in which CD73 was knocked-out using GenCRISPR™ gene editing technology (GenScript USA, Inc). Efficacy of CD73 knockout in 4T1 tumor cells was confirmed by flow cytometry. Female BALB/c mice were inoculated into the right mammary fat pad with 1×10^5 CD73 KO 4T1 tumor cells and were treated with Compound A (300 mg/kg po, bid), bintrafusp alfa (24.6 mg/kg iv, days 0, 3, 6), Compound A+bintrafusp alfa, when average tumor volume reached approximately 60 mm^3. […]

[3] = tested on: ADORA2B (A2B); experiment: RNAseq gene expression in 4T1 tumors; type: in vivo, mice; details: CD73hi 4T1 tumors; bintrafusp alfa 24.6 mg/kg iv; Day 6 post treatment; vs isotype
Experimental: (§3) FIG. 4: Bintrafusp alfa increases expression of A2B in CD73h adenosine-rich 4T1 tumor model, but not in CD73^low adenosine-low MC38 tumor model. For the 4T1 tumor model, female BALB/c mice were inoculated with 2×10^5 4T1 cells into the right mammary fat pad. For the MC38 tumor model, female C57BL/6 mice were inoculated subcutaneously in the right flank with MC38 cells (1×10^6). Animals in both studies were randomized into the groups and treatments started when the average tumor size reached approximately 100-150 mm^3. For both models, there were 15 mice in each group. The animals were treated with isotype control (20 mg/kg, iv) or bintrafusp alfa (24.6 mg/kg, iv) on days 0, 1, and 2. Tumors were harvested on Day 6 post treatment start, flash frozen, and used for RNASeq analysis. Gene expression levels of (A) NT5E, (B) ADORA2A (A2A), and (C) ADORA2B (A2B) are presented as mean±SEM. P-values were calculated using two-way ANOVA.
(§4) To determine whether bintrafusp alfa treatment modulates expression of A2A or A2B receptors or NT5E (gene encoding CD73), mice with established 4T1 and MC38 tumors were treated with 20 mg/kg isotype antibody or 24.6 mg/kg bintrafusp alfa.

[4] = tested on: ADORA2A (A2A); experiment: RNAseq gene expression in 4T1 tumors; type: in vivo, mice; details: bintrafusp alfa 24.6 mg/kg iv, Day 6 post treatment, vs isotype
Experimental: as §3, §4

[5] = tested on: NT5E (CD73); experiment: RNAseq gene expression in 4T1 tumors; type: in vivo, mice; details: bintrafusp alfa 24.6 mg/kg iv, Day 6 post treatment, vs isotype
Experimental: as §3, §4

[6] = tested on: MC38 cells; experiment: CD73low MC38 syngeneic tumor model, tumor growth; type: in vivo, mice
Experimental: as §1, with “C57BL/6” for “C3H”, “MC38” for “MBT2”, “lower” for “upper”, “70” for “53”
as §2

| Molecule | tumor growth inhibition, T/C [1] [%] | tumor growth inhibition, T/C [2] [%] | expression of A2B [3] | expression of A2A [4] | expression of NT5E (CD73) [5] | tumor growth inhibition, T/C ([6]; MC38, female C57BL/6 mice, Day 22 post treatment initiation, Compound A 300 mg/kg po BID, bintrafusp alfa 24.6 mg/kg iv days 0, 3, 6) [%] | tumor growth inhibition ([6]; MC38, Compound A 300 mg/kg po BID monotherapy) |
| --- | --- | --- | --- | --- | --- | --- | --- |
| bintrafusp alfa: anti-PD-L1:TGFβRII fusion protein, CAS 1918149-01-5; human IgG1 antibody against PD-L1 fused to extracellular domain of human TGF-β receptor II | 29.9 | 75.4 | increased | no changes | no changes | 42.1 | – |
| COc1ncc(C2=CCOCC2)c2sc(NC(=O)N3CC[C@@]4(CCCOC4)C3)nc12 [Compound A, (S)-7-Oxa-2-aza-spiro[4.5]decane-2-carboxylic acid [7-(3,6-dihydro-2H-pyran-4-yl)-4-methoxy-thiazolo[4,5-c]pyridin-2-yl]-amide] | – | 108 | – | – | – | – | no tumor growth inhibition observed |
